Experimental data reported in ChEMBL document CHEMBL5131517 (ACS Med Chem Lett, 2022).

Columns and labels:
[1] = target: T1, 5-hydroxytryptamine receptor 2C (Homo sapiens, UniProt P28335); test: Agonist activity at human 5HT2C receptor stably expressed in Flp-In-T-REx-293 cells assessed as increase in Gq-mediated calcium flux by Fluo-4 direct dye based FLIPR Tetra assay; format: functional, cell-based; conditions: read-out: EC50
T1 sequence (P28335 whole entry): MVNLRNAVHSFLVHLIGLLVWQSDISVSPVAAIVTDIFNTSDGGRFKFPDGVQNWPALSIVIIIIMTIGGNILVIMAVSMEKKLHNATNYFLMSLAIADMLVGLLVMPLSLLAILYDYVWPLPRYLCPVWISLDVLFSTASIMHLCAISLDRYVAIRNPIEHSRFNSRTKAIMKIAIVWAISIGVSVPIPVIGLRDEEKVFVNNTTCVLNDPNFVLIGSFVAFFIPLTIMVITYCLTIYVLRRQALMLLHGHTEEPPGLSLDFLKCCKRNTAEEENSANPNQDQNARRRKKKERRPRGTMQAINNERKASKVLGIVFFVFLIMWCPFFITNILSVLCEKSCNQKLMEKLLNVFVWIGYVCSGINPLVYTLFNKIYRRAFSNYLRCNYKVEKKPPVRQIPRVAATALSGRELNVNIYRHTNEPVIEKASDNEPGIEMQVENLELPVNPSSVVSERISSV

[2] = target: D(2) dopamine receptor (Homo sapiens) (UniProt P14416); test: Inhibition of D2 receptor (unknown origin); conditions: concentration not given here
Chain of D(2) dopamine receptor (Homo sapiens) (P14416 whole entry): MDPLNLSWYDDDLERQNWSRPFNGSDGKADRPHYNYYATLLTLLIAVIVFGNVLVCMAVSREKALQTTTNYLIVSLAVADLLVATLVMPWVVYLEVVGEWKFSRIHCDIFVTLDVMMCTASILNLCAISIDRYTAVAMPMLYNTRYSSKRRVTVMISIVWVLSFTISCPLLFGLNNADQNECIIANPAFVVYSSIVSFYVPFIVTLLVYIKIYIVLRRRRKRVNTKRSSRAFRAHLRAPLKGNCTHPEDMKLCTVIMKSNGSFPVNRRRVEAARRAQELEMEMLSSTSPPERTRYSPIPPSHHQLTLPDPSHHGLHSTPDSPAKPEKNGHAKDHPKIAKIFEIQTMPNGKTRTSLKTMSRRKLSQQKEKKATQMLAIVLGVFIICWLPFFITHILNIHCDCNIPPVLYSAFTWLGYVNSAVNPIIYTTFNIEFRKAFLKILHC

[3] = target: D(3) dopamine receptor (Homo sapiens, UniProt P35462); test: Inhibition of D3 receptor (unknown origin); conditions: concentration not given here
Chain of D(3) dopamine receptor (P35462 whole entry): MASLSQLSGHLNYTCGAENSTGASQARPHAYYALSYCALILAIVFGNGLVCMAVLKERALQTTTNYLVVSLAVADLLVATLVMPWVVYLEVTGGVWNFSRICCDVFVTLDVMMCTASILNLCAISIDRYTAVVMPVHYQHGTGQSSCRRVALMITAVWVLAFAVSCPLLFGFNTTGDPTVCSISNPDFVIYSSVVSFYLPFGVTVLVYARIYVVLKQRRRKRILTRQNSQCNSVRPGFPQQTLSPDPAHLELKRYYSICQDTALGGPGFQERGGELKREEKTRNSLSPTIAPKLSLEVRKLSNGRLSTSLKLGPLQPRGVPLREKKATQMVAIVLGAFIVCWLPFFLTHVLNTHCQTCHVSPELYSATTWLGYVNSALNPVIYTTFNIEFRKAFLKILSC

[4] = target: GABA-A receptor; anion channel (Homo sapiens) (UniProt P14867+P47870+P18507+P28472+P48169+Q99928+Q9UN88+P34903+O00591+O14764+Q8N1C3+P18505+P78334+P47869+P31644+Q16445); test: Inhibition of GABA-A receptor (unknown origin); format: protein-complex assay; conditions: concentration not given here
[5] = target: 5-hydroxytryptamine receptor 5A (Homo sapiens, UniProt P47898); test: Binding affinity to 5HT5A receptor (unknown origin) assessed as inhibition constant
Chain of 5-hydroxytryptamine receptor 5A (P47898 whole entry): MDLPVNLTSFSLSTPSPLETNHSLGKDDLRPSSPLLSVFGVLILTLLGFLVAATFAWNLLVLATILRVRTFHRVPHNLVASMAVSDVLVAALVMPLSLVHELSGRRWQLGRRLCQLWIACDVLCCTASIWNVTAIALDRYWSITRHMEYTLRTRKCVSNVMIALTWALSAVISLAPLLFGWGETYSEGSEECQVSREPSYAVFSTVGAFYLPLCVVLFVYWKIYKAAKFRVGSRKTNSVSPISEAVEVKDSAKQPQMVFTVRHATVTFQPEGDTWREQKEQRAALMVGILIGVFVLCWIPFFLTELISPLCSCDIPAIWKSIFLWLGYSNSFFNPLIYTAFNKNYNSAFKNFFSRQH

[6] = target: T2, Alpha-1B adrenergic receptor (Homo sapiens) (UniProt P35368); test: Inhibition of alpha1B receptor (unknown origin); conditions: concentration not given here
T2 sequence (whole entry): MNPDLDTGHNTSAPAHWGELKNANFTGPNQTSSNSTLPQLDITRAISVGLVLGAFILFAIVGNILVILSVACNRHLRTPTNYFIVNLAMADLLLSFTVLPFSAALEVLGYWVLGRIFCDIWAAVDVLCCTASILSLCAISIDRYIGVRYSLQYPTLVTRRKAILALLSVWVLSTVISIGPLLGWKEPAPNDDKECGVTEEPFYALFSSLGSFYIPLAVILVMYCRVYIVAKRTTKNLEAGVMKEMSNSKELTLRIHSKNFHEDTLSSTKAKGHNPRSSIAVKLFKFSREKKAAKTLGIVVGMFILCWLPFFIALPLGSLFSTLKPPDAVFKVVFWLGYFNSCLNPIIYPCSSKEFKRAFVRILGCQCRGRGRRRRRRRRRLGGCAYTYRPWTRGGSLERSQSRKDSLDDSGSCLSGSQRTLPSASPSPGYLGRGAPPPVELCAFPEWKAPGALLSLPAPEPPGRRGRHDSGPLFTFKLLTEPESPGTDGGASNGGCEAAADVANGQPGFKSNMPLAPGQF

[7] = target: 5-hydroxytryptamine receptor 2B (Homo sapiens, UniProt P41595); test: Agonist activity at human 5HT2B receptor stably expressed in Flp-In-T-REx-293 cells assessed as increase in Gq-mediated calcium flux by Fluo-4 direct dye based FLIPR Tetra assay; format: functional, cell-based
Chain of 5-hydroxytryptamine receptor 2B (P41595 whole entry): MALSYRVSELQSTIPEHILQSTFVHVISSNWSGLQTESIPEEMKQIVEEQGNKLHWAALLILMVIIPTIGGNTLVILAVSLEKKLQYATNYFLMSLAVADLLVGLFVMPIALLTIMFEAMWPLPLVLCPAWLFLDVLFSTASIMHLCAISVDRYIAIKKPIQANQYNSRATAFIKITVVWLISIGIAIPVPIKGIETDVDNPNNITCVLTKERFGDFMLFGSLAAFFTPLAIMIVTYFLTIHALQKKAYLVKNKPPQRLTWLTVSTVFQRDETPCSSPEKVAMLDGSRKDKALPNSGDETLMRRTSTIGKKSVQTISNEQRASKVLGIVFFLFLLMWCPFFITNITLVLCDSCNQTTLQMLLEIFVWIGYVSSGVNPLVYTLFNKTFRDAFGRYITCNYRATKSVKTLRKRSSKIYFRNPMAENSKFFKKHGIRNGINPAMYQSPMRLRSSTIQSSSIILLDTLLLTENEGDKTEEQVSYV

[8] = target: T3, Muscarinic acetylcholine receptor M5 (Homo sapiens) (UniProt P08912); test: Inhibition of M5 receptor (unknown origin); conditions: concentration not given here
T3 sequence (whole entry): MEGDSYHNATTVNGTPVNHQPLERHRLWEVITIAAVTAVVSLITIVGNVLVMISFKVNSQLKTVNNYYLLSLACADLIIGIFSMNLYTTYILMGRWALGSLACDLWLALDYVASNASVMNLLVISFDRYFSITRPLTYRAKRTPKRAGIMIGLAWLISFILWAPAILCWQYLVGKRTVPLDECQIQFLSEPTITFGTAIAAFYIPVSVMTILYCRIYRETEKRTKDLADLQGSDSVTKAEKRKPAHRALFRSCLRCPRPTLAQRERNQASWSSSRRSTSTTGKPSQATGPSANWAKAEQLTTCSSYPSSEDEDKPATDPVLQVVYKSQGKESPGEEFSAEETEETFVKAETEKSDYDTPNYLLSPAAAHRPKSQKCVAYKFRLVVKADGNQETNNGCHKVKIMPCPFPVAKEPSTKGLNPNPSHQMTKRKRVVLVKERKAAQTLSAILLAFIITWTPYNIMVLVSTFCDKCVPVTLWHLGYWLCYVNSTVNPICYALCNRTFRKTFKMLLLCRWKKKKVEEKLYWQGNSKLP

[9] = target: T4, Alpha-2B adrenergic receptor (Homo sapiens) (UniProt P18089); test: Inhibition of alpha2B receptor (unknown origin); conditions: concentration not given here
T4 sequence (whole entry): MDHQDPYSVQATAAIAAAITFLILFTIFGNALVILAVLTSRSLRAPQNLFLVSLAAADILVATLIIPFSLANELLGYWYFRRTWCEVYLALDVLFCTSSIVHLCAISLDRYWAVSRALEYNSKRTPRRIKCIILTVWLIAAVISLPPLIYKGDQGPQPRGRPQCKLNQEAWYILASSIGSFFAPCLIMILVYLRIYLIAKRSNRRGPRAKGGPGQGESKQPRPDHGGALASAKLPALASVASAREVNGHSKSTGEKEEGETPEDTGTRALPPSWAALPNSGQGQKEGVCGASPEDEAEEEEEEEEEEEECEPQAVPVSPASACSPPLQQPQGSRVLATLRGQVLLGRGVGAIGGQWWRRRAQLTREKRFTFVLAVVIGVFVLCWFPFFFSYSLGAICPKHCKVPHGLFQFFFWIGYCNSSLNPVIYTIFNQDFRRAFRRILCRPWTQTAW

[10] = target: Sigma intracellular receptor 2 (Homo sapiens, UniProt Q5BJF2); test: Inhibition of sigma 2 receptor (unknown origin); conditions: concentration not given here
Chain of Sigma intracellular receptor 2 (Q5BJF2 whole entry): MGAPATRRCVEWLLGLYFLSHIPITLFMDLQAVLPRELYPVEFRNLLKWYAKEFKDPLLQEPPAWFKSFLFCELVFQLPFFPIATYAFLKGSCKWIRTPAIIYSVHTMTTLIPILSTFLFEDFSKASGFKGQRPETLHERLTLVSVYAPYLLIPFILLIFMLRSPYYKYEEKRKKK

EC50 [1]	inhibition [2]	inhibition [3]	inhibition [4]	Ki [5]	inhibition [6]	EC50 ([7]; read-out: EC50)	EC50 ([7]; read-out: pEC50 (converted))	inhibition [8]	inhibition [9]	inhibition [10]	Compound
20 nM	< 50%	< 50%	< 50%	2840 nM	< 50%	10 nM	11 nM	< 50%	< 50%		COc1cc(OC)c(C2NCCc3c2[nH]c2ccc(F)cc32)cc1OC (centres undefined)
0.5 nM	< 50%	< 50%	< 50%	69.5 nM	< 50%	0.58 nM		< 50%	< 50%	< 50%	COc1cc(OC)c(C2NCCc3c2[nH]c2ccc(Cl)cc32)cc1OC (centres undefined)
8.9 nM	< 50%		< 50%	177 nM	< 50%	3.1 nM		< 50%	< 50%	< 50%	COc1ccc(C2NCCc3c2[nH]c2ccc(Cl)cc32)c(O)c1 (centres undefined)
1.02 nM	< 50%	< 50%	< 50%	229 nM	< 50%	1.3 nM		< 50%	< 50%	< 50%	COc1ccc(C2NCCc3c2[nH]c2ccc(F)cc32)c(O)c1 (centres undefined)
